From patent US10792633B2, “Composition comprising a fluorine-containing surfactant” (HWK-Kronbichler GmbH, priority 2016, dated 2020) come the findings set out here.

What is called solubility is how much of the substance goes into solution per volume.

≈ marks a conversion by molar mass, not a printed value. Read-outs that look alike come from different tables or passages of the source. Marks after values point to notes of the source that are not given here.

What all share (assay type): physicochemical
Data set [1] is described as follows: Determining the solubility in water. The settings on record: for solubility at 5 min: water, 23 °C, thermodynamic from solid. The method, then: The suspension was added to the ultrasound bath for 5 minutes and was centrifuged for 20 minutes. The supernatant was then weighed and was rinsed with argon for 5 minutes to remove any possibly dissolved oxygen. […] The experiment was performed at approximately 23° C.

Data set [2] in a line: Measurement of surface tension at suspended drop (Drop Shape Analyser DSA 25). The method, then:
The surface tension was determined at suspended drop using a “Drop Shape Analyser DSA 25” of the Krüss corporation. The drop volume at most measurements amounted to approximately 5 μl. […] Each sample was measured a total of ten times. The standard deviations are marked by s in the table shown below. In the measurements at a concentration of 0.05 wt % surfactant, larger drop volumes were used in some cases to obtain a better reproducibility of the measurement results.

Data set [3] can be described thus: Solubility in organic solvents.
Data set [4] in a line: Determination of the static surface tension in water (Example 10). The settings on record: mean of 10. An excerpt: The determination of the static surface tension for 3-(1H,1H,2H,2H-perfluorooctyl)-2-((1H,1H,2H,2H-perfluorooctyl)thio)-1-methyl-1H-imidazolium chloride in water produced the values indicated in the following Table 6 for the surface tension (OFS) in […] at different concentrations c in wt %. The values for OFS represent the mean value from 10 measurements. The standard deviation S [mN/m] for these values is likewise indicated.

A short description of data set [5]: Use as an emulsifying agent for Teflon (stability of the suspension in water). The settings on record: 0.100 g surfactant and 0.200 g Teflon 1 μm in water. How it is done:
A solution of 10 ml water, 0.100 g 1-methyl-2-((1H,1H,2H,2H-perfluorooctyl)thio)-1H-imidazolium-2-acrylamido-2-methylpropanesulfonate was dissolved in 10 ml water and 0.200 g Teflon 1 μm (Sigmal-Aldrich) were subsequently added to this solution. A suspension was formed in this process that remained stable for at least 4 hours. After 2 days a white powder had been deposited on the bottom.

Setting [6] is: surfactant in water 0.05 wt %, n = 10, drop approx. 5 μl, * 8 μl, ** 20 μl.
[7] abbreviates: surfactant in water 0.5 wt %, n = 10, 24.5-25.1° C.

Consider “1-methyl-2-((1H,1H,2H,2H-perfluorooctyl)thio)-1H-imidazolium-2-(methacryloyloxy)ethane-1-sulfonate [Synthesis Example 1]”, for which the Solubility in water entry in data set [1] (approximately 23° C., ultrasound bath 5 minutes, centrifuged 20 minutes) is “approximately 430 g/L”. For the same molecule, the “OFS (surface tension)” value amounted to 70.28 mN/m in data set [2] (c 0.005 % in water); 32.11 mN/m in data set [2] (c 0.01 % in water); 20.8 mN/m in data set [2] (c 0.1 % in water); 23.24 mN/m in data set [2] (setting [6]); 16.22 mN/m in data set [2] (setting [7]).

As to “1-methyl-2-((perfluorohexylethyl)thio)imidazoliumiodide-Co-1-iodoperfluorooctylane [1-iodoperfluorooctyl-Co-complex]”, in data set [3], the “Solubility in 3M Novec 71 IPA” value was determined as 20.5 mg/mL.

`CS(=O)(=O)O.Cn1ccnc1SCCC(F)(F)C(F)(F)C(F)(F)C(F)(F)C(F)(F)C(F)(F)F` [1-methyl-2-((1H,1H,2H,2H-perfluorooctyl)thio)-1H-imidazolium-methanesulfonate]: the “OFS (surface tension)” value stood at 24.39 mN/m in data set [2] (setting [6]) and 16.21 mN/m in data set [2] (setting [7]).

With `CC1(C)C2CCC1(CS(=O)(=O)O)C(=O)C2.Cn1ccnc1SCCC(F)(F)C(F)(F)C(F)(F)C(F)(F)C(F)(F)C(F)(F)F` [1-methyl-2-((1H,1H,2H,2H-perfluorooctyl)thio)imidazolium-(±)-camphor-10-sulfonate], the “Solubility in water” value in data set [1] (values not exact) was above 4000 mg/mL.

In the case of `Br.Cn1ccnc1SCCC(F)(F)C(F)(F)C(F)(F)C(F)(F)C(F)(F)C(F)(F)F` [1-methyl-2-((1H,1H,2H,2H-perfluorooctyl)thio)imidazoliumbromide], the “Solubility in water” value in data set [1] (values not exact) was found to be 1200 mg/mL.

On to `Cl.Cn1ccnc1SCCC(F)(F)C(F)(F)C(F)(F)C(F)(F)C(F)(F)C(F)(F)F` [1-methyl-2-((1H,1H,2H,2H-perfluorooctyl)thio)imidazoliumchloride], for which the “Solubility in water” value in data set [1] (values not exact) was determined as 1750 mg/mL.

As to `Cn1cc[n+](CCC(F)(F)C(F)(F)C(F)(F)C(F)(F)C(F)(F)C(F)(F)F)c1SCCC(F)(F)C(F)(F)C(F)(F)C(F)(F)C(F)(F)C(F)(F)F.[Cl-]` [3-(1H,1H,2H,2H-perfluorooctyl)-2-((1H,1H,2H,2H-perfluorooctyl)thio)-1-methyl-1H-imidazolium chloride], the “OFS (static surface tension)” value in data set [4] (c 0.0025 wt % in water) worked out at 40.74 mN/m; in data set [4] (c 0.0050 wt % in water) it was 21.29 mN/m; in data set [4] (c 0.0075 wt % in water), 18.89 mN/m; in data set [4] (c 0.0100 wt % in water) it was 16.29 mN/m; in data set [4] (c 0.0250 wt % in water), 14.43 mN/m; in data set [4] (c 0.0500 wt % in water), 15.05 mN/m. Also, the “OFS (static surface tension)” value is 15.02 mN/m in data set [4] (c 0.0750 wt % in water), 15 mN/m in data set [4] (c 0.1000 wt % in water), 15.5 mN/m in data set [4] (c 0.2500 wt % in water) and 14.5 mN/m in data set [4] (c 0.5000 wt % in water).

Consider `N.O=C(O)C(F)(F)C(F)OC(F)(F)C(F)(F)C(F)(F)OC(F)(F)F` (centres unmarked) [Ammonium-4,8-dioxa-3H-perfluorononanoate, reference compound], for which the entries for the “OFS (surface tension)” value in data set [2] (setting [6]) and in data set [2] (setting [7]) were 64.87** mN/m and 46.42 mN/m, respectively.

Turning to `O=C(O)C(F)(F)C(F)(F)C(F)(F)C(F)(F)C(F)(F)C(F)(F)C(F)(F)F` [Perfluorooctanoic acid, reference compound], the “OFS (surface tension)” value is reported as 55.68** mN/m in data set [2] (setting [6]) and 16 mN/m in data set [2] (setting [7]).

For `C=CC(=O)NC(C)(C)CS(=O)(=O)O.Cn1ccnc1SCCC(F)(F)C(F)(F)C(F)(F)C(F)(F)C(F)(F)C(F)(F)F` [Synthesis Example 2, 1-methyl-2-((1H,1H,2H,2H-perfluorooctyl)thio)-1H-imidazolium-2-acrylamido-2-methylpropanesulfonate], in data set [1], the “soluble in water (in words)” value is “soluble in water”. Further, in data set [5], the “time the Teflon suspension remained stable” value is on record as “at least 4 hours”.

With `Cn1cc[n+](CCCS(=O)(=O)[O-])c1SCCC(F)(F)C(F)(F)C(F)(F)C(F)(F)C(F)(F)C(F)(F)F` [Synthesis Example 6, 3-(1-methyl-2-((1H,1H,2H,2H-perfluorooctyl)thio)imidazolium-3-yl) propane-1-sulfonate], the solubility at 5 min in data set [1] (values not exact, read-out: Solubility in water) is 160 mg/mL (≈ 275 mM); in data set [1] (read-out: water solubility) it was around 160 mg/mL (≈ 275 mM). For the same molecule, the “OFS (surface tension)” value is given as 29.74* mN/m in data set [2] (setting [6]) and 24.94 mN/m in data set [2] (setting [7]).
